Results: article PMC5738391, “Three classes of ligands each bind to distinct sites on the orphan G protein-coupled receptor GPR84” (Scientific Reports, 2017)

What was measured:
[1] = target: GPR84-Cys^352Ile Gαi2 fusion protein (Homo sapiens, UniProt Q9NQS5); experiment: [35S]GTPγS binding, membranes expressing pertussis toxin-resistant GPR84-Cys352Ile Gαi2 fusion; operational model of allosteric modulation; type: biochemical
Description: The only previous study[3] designed to explore the mode of binding of ligands to GPR84 employed a fusion protein[31],[32] in which the G protein Gαi1 was linked in-frame to the C-terminal tail of GPR84.
(§1) Membranes were generated from Flp-In T-REx HEK293 cells treated with 100 ng/mL doxycycline to induce expression of the receptor construct of interest. Cells were washed with ice-cold phosphate-buffered saline, removed from dishes by scraping and centrifuged at 3000 rpm for 5 min at 4 °C. Pellets were resuspended in TE buffer (10 mM Tris-HCl, 0.1 mM EDTA; pH 7.5) containing a protease inhibitor mixture (Roche Applied Science, West Sussex, UK) and homogenized with a 5 ml hand-held homogenizer. This material was centrifuged at 1500 rpm for 5 min at 4 °C and the supernatant was further centrifuged at 50000 rpm for 45 min at 4 °C. The resulting pellet was resuspended in TE buffer and protein content was assessed using a BCA protein assay kit (Pierce, Fisher Scientific, Loughborough, UK).
The reaction was then initiated with addition of [^35S]GTPγS (50 nCi per tube), and the reaction was terminated after 45 minutes incubation at 30 °C by rapid filtration through GF/C glass filters using a 24-well Brandel cell harvester (Alpha Biotech, Glasgow, UK). […] Dried filters were added to 3 mL of Ultima Gold^TM XR (PerkinElmer Life Sciences, Beaconsfield, UK) and [^35S]GTPγS binding was determined by liquid scintillation spectrometry.
To quantify the extent of allosteric interaction between pairs of ligands, data were analysed using an operational model of allosteric modulation described previously. The general version of this model can be depicted by the following equation: E=Em(τA[A](KB+αβ[B])+τB[B]KA)^n/([A]KB+KAKB+[B]KA+α[A][B])^n+(τA[A](KB+αβ[B])+τB[B]KA)^n where, E is the pharmacological effect, [A] and [B] are the orthosteric and allosteric compound concentrations at equilibrium, respectively; KA and KB are the equilibrium dissociation constants of the orthosteric and allosteric ligands respectively, denoting the binding affinities of the two ligands to the receptor; α is the binding cooperativity factor denoting the magnitude and direction of the allosteric effect on binding affinity of the orthosteric agonist to the receptor, β is the activation cooperativity factor representing the measure of the allosteric effect on orthosteric efficacy. τA and τB represent the intrinsic activity of the orthosteric and allosteric ligand, respectively. Em is the maximal possible system response and n denotes the slope factor of the transducer function. In case of global fitting of the allosterism data through this equation, Em and n values were always constrained and other parameters (KA, KB,τA, τB, α, β) were estimated.

[2] = target: T1, human GPR84 (FLAG-hGPR84-eYFP) (Homo sapiens, UniProt Q9NQS5); experiment: HTRF-based cAMP inhibition assay in Flp-In T-REx 293 cells expressing FLAG-hGPR84-eYFP; type: cell-based; conditions: 100 μM of each MCFA
T1 construct: expressed in transfected cells
Description: For the assay cells were plated at 5000 cells/well in low-volume 384-well plates. The ability of agonists to inhibit 1 μM forskolin-induced cAMP production was assessed following a co-incubation for 30 min with agonist compounds.

[3] = test system: GPR84-Gαi2 fusion protein; experiment: [35S]GTPγS binding, membranes expressing GPR84-Gαi2 fusion protein; type: biochemical, human; conditions: wild type GPR84-Gαi2 fusion, pertussis toxin 24 h
From the text: The only previous study[3] designed to explore the mode of binding of ligands to GPR84 employed a fusion protein[31],[32] in which the G protein Gαi1 was linked in-frame to the C-terminal tail of GPR84. […] These studies indicate that following pertussis toxin treatment of cells expressing the GPR84-Cys^352Ile Gαi2 fusion protein all agonist-induced binding of [^35S]GTPγS reflects incorporation of nucleotide into the receptor-linked G protein α subunit.
as §1
Initially, 5 μg of generated membrane protein was pre-incubated for 15 min at 25 °C in assay buffer (20 mM HEPES, 5 mM MgCl2; 160 mM NaCl; 1 μM GDP; 0.05% fatty acid-free bovine serum albumin; pH 7.5) containing the indicated ligand concentrations. […] The reaction was then initiated with addition of [^35S]GTPγS (50 nCi per tube), and the reaction was terminated after 45 minutes incubation at 30 °C by rapid filtration through GF/C glass filters using a 24-well Brandel cell harvester (Alpha Biotech, Glasgow, UK). Unbound radioligand was removed from filters by three washes with ice-cold phosphate buffered saline (pH 7.4) and filters were dried for 2–3 h at room temperature. Dried filters were added to 3 mL of Ultima Gold^TM XR (PerkinElmer Life Sciences, Beaconsfield, UK) and [^35S]GTPγS binding was determined by liquid scintillation spectrometry.

[4] = parameters: method as in PMID 17164373; conditions: cited from earlier work
[5] = agonist DIM, modulator compound-1
[6] = oral dosing to women of up to 1000 mg of indole-3-carbinol

GPR84-Cys^352Ile Gαi2 fusion protein, sequence (Q9NQS5 whole entry, the tested form may be a part): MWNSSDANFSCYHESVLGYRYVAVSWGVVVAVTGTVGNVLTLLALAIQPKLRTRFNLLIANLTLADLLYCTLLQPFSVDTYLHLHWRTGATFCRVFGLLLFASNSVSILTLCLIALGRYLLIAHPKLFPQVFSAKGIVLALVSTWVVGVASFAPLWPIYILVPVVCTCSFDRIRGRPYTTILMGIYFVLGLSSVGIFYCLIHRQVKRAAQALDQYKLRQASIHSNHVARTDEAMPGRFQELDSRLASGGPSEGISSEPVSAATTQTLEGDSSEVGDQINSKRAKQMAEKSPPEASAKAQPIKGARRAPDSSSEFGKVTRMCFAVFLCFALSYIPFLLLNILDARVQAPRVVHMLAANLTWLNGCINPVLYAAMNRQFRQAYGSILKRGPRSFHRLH
GPR84-Cys^352Ile Gαi2 fusion protein, sequence (P04899 2-355 C352I, further chain): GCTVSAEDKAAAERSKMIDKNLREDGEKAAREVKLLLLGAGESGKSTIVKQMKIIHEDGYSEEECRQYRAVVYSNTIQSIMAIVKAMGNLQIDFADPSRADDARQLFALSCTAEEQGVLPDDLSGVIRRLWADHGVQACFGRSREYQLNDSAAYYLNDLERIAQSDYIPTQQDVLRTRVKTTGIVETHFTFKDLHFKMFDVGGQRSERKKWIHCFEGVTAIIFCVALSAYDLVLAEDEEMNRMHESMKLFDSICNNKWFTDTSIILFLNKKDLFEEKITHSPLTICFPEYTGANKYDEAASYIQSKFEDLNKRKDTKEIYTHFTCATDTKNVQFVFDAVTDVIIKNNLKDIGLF
T1 sequence (Q9NQS5 whole entry): as the sequence (Q9NQS5 whole entry, the tested form may be a part) above

| SMILES | co-addition with compound-1 or embelin, effect on potency [1] | logα ([1]; agonist C-10, modulator DIM) | logβ ([1]; agonist C-10, modulator DIM) | capacity to inhibit forskolin-amplified levels of cAMP, compared among MCFAs of chain length C9-C14 [2] | increase in potency of DIM to activate GPR84 at high levels of C10 or other MCFAs versus absence of C10 [1] [fold] | logα ([1]; agonist DIM, modulator C-10) | logβ ([1]; agonist DIM, modulator C-10) | logα [1, 5] | logβ [1, 5] | logα ([1]; agonist DIM, modulator embelin) | logβ ([1]; agonist DIM, modulator embelin) | allosteric effect on potency of C10 ([1]; co-addition of increasing concentrations of DIM, pertussis toxin-treated cells) | effect on measured potency of compound-1 and embelin ([1]; increasing concentrations of DIM) | response after pertussis toxin treatment ([1]; pertussis toxin-resistant fusion, pertussis toxin 24 h) | response after pertussis toxin pre-treatment [3] | clearance from plasma ([4]; after oral indole-3-carbinol) | peak plasma level of DIM [4, 6] | time to peak plasma level of DIM [4, 6] [h] |
| --- | --- | --- | --- | --- | --- | --- | --- | --- | --- | --- | --- | --- | --- | --- | --- | --- | --- | --- |
| CCCCCCCCCC(=O)O [C10, decanoic acid] | did not result in modulation of the potency | 1.4 ± 0.1 | 0.4 ± 0.07 | produced the largest effect | – | – | – | – | – | – | – | – | – | – | – | – | – | – |
| c1ccc2c(Cc3c[nH]c4ccccc34)c[nH]c2c1 [DIM, 3,-3′-diindolylmethane] | – | – | – | – | ~20 | 1.3 ± 0.1 | 1.2 ± 0.05 | 1.8 ± 0.08 | 1.14 ± 0.03 | 1.12 ± 0.04 | 1.0 ± 0.03 | positive allosteric modulator | enhancing the measured potency | unaffected | all but eliminated | rapidly cleared | 500–600 ng/ml and approximately 2 μM | ≤ 2 |
